From ChEMBL document CHEMBL1145558, “3,5-Dihydro-imidazo[4,5-d]pyridazin-4-ones: a class of potent DPP-4 inhibitors” (Bioorg Med Chem Lett, 2008) come the findings set out here.

Series [1] concerns the target T1, Muscarinic acetylcholine receptor M1 (Homo sapiens, UniProt P11229).
T1 sequence (P11229 whole entry): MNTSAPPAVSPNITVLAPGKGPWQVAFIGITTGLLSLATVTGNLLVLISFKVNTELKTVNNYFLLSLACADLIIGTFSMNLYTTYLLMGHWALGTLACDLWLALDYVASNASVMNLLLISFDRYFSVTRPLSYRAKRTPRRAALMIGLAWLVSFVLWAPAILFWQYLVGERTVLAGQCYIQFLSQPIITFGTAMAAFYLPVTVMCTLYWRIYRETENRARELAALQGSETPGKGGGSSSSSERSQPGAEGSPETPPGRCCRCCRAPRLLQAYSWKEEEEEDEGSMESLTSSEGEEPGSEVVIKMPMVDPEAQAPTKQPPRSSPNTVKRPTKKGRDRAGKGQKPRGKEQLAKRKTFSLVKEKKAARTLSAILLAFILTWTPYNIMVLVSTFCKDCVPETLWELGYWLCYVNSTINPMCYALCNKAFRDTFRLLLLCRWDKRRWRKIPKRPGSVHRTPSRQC
The series can be described thus: Displacement of [N-methyl-3H]scopolamine from human recombinant muscarinic receptor M1 expressed in CHO cell membrane. It counts as cell membranes.

The species named for series [2] is Rattus norvegicus. The series can be described thus: animal or person. To be noted: Plasma, po, 7 h, read-out: Inhibition.
Description: Ex vivo inhibition of DPP4 in rat plasma at 10 mg/kg, po after 7 hrs
Series [3] concerns Rattus norvegicus. The series can be described thus: Ex vivo inhibition of DPP4 in rat plasma at 10 mg/kg, po after 24 hrs. On the set-up: scale not given: the % may be the effect or the level left. Type of series: functional.
Series [4] addresses Cytochrome P450 3A4 (Homo sapiens, UniProt P08684). Put plainly: Inhibition of CYP3A4. It counts as ADME.
Series [5] deals with T2, Cytochrome P450 1A2 (Homo sapiens, UniProt P05177).
T2 sequence (P05177 whole entry): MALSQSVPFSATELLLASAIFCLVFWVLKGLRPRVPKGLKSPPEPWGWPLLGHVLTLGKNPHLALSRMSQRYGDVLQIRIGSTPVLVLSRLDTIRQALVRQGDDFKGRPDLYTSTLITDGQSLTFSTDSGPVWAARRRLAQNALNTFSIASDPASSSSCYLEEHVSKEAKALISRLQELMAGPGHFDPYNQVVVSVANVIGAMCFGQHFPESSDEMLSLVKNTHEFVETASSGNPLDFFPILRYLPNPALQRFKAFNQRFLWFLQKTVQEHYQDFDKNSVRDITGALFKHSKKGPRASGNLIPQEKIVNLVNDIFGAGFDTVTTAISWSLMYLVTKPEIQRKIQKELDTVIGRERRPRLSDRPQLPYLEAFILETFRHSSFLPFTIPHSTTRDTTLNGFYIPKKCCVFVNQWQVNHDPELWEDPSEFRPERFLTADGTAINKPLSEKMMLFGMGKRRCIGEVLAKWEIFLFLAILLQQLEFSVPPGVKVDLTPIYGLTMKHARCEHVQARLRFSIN
Put plainly: Inhibition of CYP1A2. It counts as ADME.

The target in series [6] is Cytochrome P450 2C9 (Homo sapiens, UniProt P11712). Put plainly: Inhibition of CYP2C9. It counts as ADME.
Sequence of Cytochrome P450 2C9 (P11712 whole entry): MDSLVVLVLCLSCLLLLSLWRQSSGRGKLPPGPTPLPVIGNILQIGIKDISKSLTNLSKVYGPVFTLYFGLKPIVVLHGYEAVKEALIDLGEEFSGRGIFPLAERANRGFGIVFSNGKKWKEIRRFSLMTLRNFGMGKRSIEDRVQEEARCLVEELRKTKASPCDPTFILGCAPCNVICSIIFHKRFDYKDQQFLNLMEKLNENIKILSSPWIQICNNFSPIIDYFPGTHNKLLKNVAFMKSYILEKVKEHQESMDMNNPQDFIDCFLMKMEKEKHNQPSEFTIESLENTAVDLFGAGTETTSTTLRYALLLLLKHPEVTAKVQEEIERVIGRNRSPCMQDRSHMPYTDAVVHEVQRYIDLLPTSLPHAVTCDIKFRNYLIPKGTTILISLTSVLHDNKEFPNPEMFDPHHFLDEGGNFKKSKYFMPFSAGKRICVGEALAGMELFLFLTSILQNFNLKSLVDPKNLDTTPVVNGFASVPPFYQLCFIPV
Series [7] has as its target Cytochrome P450 2D6 (Homo sapiens, UniProt P10635). The series can be described thus: Inhibition of CYP2D6. It counts as ADME.
Series [8] can be described thus: Mean residence time in rat. To be noted: in vivo. It counts as ADME, organism-based.
In series [9] the target is Cytochrome P450 2C19 (Homo sapiens, UniProt P33261). Put plainly: Inhibition of CYP2C19. It counts as ADME.
Sequence of Cytochrome P450 2C19 (P33261 whole entry): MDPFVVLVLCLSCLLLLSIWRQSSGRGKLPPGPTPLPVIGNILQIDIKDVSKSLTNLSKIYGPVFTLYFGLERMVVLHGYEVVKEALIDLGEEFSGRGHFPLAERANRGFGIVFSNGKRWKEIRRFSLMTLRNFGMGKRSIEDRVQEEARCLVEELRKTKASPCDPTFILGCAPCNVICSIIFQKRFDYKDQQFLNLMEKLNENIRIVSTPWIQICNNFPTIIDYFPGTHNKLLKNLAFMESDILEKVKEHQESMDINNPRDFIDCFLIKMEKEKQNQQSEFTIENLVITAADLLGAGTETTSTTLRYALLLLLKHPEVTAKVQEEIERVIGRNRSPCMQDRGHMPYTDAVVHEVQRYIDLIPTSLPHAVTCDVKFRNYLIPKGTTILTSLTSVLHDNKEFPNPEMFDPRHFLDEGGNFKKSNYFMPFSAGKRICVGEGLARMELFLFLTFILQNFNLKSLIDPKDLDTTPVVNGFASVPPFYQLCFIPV
Series [10] is described as follows: Metabolic stability in human liver cytosol assessed as half life. Type of series: ADME, tissue-based.
Series [11] is described as follows: Oral bioavailability in rat. It counts as ADME, organism-based. To be noted: in vivo.
The target of series [12] is hERG (KCNH2) (Homo sapiens, UniProt Q12809). Put plainly: Inhibition of human ERG assessed as channel current activity at 1 uM. Details: scale not given: the % may be the effect or the level left. The conditions noted are these: read-out: Activity.
Sequence of hERG (KCNH2) (Q12809 whole entry): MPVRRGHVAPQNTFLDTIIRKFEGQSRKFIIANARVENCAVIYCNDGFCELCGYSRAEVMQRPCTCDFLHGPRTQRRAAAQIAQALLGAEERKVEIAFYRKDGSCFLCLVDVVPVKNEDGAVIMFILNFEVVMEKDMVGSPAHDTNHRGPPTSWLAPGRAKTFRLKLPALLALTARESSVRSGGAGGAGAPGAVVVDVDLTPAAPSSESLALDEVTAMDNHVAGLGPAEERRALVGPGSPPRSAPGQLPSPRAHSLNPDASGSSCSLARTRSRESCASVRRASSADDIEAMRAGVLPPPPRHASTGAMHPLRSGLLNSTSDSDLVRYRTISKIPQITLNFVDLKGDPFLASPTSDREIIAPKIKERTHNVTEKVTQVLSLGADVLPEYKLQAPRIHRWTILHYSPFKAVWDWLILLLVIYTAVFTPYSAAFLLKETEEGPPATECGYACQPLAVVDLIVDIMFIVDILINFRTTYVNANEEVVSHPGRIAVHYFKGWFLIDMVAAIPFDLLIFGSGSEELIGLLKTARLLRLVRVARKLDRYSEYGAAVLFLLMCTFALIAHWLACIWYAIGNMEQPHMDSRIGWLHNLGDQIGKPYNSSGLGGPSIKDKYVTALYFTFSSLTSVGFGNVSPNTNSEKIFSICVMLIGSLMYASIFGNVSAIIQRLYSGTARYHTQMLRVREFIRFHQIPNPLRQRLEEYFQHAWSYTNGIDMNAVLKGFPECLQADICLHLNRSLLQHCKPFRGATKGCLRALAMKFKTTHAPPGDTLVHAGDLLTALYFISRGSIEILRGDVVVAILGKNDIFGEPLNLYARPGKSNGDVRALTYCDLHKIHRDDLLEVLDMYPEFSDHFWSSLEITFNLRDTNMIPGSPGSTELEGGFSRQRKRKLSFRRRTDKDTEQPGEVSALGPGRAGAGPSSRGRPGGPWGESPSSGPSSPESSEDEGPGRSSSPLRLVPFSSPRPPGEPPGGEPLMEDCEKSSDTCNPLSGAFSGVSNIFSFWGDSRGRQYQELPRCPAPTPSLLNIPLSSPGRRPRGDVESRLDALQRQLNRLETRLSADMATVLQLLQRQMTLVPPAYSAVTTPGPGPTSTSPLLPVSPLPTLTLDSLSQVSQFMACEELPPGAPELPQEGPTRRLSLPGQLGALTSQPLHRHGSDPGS
Series [13] can be described thus: Clearance in rat. Type of series: ADME, organism-based. The conditions noted are these: in vivo.
A short description of series [14]: Volume of distribution at steady state in rat. Type of series: ADME, organism-based. The conditions noted are these: in vivo, read-out: Vdss.
Series [15] in a line: Metabolic stability in human liver microsomes assessed as half life. It counts as ADME, Microsome.

Sequence of Cytochrome P450 2D6 (P10635 whole entry): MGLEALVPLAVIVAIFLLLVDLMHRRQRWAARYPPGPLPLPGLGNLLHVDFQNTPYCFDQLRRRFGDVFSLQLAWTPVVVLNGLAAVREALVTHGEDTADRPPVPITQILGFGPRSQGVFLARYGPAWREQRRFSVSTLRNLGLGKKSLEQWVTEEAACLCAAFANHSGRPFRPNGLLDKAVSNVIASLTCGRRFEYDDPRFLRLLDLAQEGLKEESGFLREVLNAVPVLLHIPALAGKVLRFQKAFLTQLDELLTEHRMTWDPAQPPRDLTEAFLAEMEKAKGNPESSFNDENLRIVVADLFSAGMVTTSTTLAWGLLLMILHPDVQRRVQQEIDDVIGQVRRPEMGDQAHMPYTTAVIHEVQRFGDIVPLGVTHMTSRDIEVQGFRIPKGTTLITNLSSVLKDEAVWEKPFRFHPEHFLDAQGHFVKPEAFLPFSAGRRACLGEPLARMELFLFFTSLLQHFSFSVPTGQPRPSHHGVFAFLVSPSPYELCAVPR
Sequence of Cytochrome P450 3A4 (P08684 whole entry): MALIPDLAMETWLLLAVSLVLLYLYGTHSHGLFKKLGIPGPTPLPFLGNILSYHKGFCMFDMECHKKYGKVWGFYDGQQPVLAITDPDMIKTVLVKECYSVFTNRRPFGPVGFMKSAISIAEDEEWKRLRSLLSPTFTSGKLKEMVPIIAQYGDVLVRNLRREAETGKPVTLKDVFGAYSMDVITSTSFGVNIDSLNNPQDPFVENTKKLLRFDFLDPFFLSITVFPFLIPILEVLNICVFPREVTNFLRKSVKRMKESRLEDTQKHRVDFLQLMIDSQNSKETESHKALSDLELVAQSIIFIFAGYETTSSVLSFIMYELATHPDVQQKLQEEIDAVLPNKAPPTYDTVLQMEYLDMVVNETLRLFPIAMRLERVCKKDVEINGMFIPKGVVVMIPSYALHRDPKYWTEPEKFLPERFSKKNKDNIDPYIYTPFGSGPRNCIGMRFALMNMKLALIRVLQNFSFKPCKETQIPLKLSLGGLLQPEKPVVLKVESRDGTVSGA

As for `CC#CCn1c(NCCN)nc2cnn(Cc3nc(C)c4ccccc4n3)c(=O)c21`, the half-maximal inhibitory concentration (IC50) (as a rule, the concentration at which inhibition is half-maximal) in series [1] is more than 5 µM. Moreover, in series [2], the inhibition in vivo at 10 mg/kg is 29%.
`CC#CCn1c(N2CCC[C@H](N)C2)nc2cnn(CC3=Nc4ccccc4Oc4ccccc43)c(=O)c21`: the inhibition in vivo at 10 mg/kg in series [2] was determined as 9%.
With `CC#CCn1c(N2CCNCC2)nc2cnn(Cc3nc(C)c4ccccc4n3)c(=O)c21`, the IC50 in series [1] was determined as 2.8 µM. Further, the inhibition in vivo at 10 mg/kg in series [2] worked out at 45%.
As for `CC#CCn1c(N2CCC[C@@H](N)C2)nc2c(C)nn(Cc3nc(C)c4ccccc4n3)c(=O)c21`, in [1], the half-inhibitory concentration (IC50) stood at 0.093 µM. Moreover, the inhibition in vivo at 10 mg/kg in [2] worked out at 76%.
Regarding `CC#CCn1c(N2CCCC(N)C2)nc2cnn(Cc3nc4ccccc4o3)c(=O)c21` (centres undefined), in [2], the inhibition in vivo at 10 mg/kg stood at 64%.
Turning to `CC#CCn1c(N2CCCC(N)C2)nc2cnn(CC3=Nc4ccccc4Oc4ccccc43)c(=O)c21` (centres undefined), in series [1], the half-maximal inhibitory concentration (IC50) came out at 5.61 µM. For the same compound, in series [2], the inhibition in vivo at 10 mg/kg is 73%.
Consider `CC#CCn1c(N2CCCC(N)C2)nc2cnn(CC(=O)c3ccccc3)c(=O)c21` (centres undefined), for which the inhibition in vivo at 10 mg/kg in [2] was determined as 8%.
Compound `CC#CCn1c(N2CCC[C@@H](N)C2)nc2cnn(Cc3nc(C)c4ccccc4n3)c(=O)c21` yielded an Activity in [3] of 71%. In addition, the Inhibition in [4], in series [5], in series [6], in series [7] and in series [9] was more than 50 µM in each case. The mean residence time (MRT) (as a rule, the average time that molecules of a dose stay in the body) in series [8] came out at 8.8 h. Moreover, the half-life in series [10] and in [15] was more than 1.5 h each time. Also, the IC50 in series [1] was found to be 1.19 µM. In addition, in series [11], the bioavailability (as a rule, the share of a dose that reaches the circulation, judged against a reference dose that is usually intravenous) came out at 15%. In [2], the inhibition in vivo at 10 mg/kg stood at 80%. In addition, the activity at 1 µM in series [12] came out at 88%. Moreover, the clearance (usually the volume of plasma or blood freed of the substance per unit of time) in series [13] was determined as 56 mL/min/kg. Moreover, in series [14], the Vd is 40 L/kg.
As for `CC#CCn1c(NC[C@H](C)N)nc2cnn(Cc3nc(C)c4ccccc4n3)c(=O)c21`, the half-inhibitory concentration (IC50) in [1] was more than 5 µM. In addition, the inhibition in vivo at 10 mg/kg in series [2] came out at 50%.
On to `CC#CCn1c(N2CCCNCC2)nc2cnn(Cc3nc(C)c4ccccc4n3)c(=O)c21`, for which the half-inhibitory concentration (IC50) in [1] amounted to 0.954 µM. Also, the inhibition in vivo at 10 mg/kg in [2] came to 20%.
As for `CC#CCn1c(N2CCCC(N)C2)nc2cnn(Cc3ccc(C#N)c4ccccc34)c(=O)c21` (centres undefined), the half-inhibitory concentration (IC50) in [1] worked out at 0.862 µM. In addition, the inhibition in vivo at 10 mg/kg in series [2] was 84%.
The matching figures for `CC#CCn1c(N2CCC[C@@H](N)C2)nc2cnn(CC3=Nc4ccccc4Oc4ccccc43)c(=O)c21`: more than 5 µM and 63%.
